# Measurements published in PMC4533973, “Synthesis and Evaluation of Chloramphenicol Homodimers: Molecular Target, Antimicrobial Activity, and Toxicity against Human Cells” (PLoS ONE, 2015).
# Read-outs that look alike come from different tables or passages of the source. Marks after values point to notes of the source that are not given here.
# Assays:
# [1] = biological target: T1, CAM acetyltransferase (Escherichia coli, UniProt P62577); test: CAM acetyltransferase assay (compounds as acetyl-acceptor substrates); assay type: biochemical, E. coli
# T1 construct: purchased Sigma-Aldrich; host or cells: E. coli
# T1 sequence (P62577 whole entry, looked up): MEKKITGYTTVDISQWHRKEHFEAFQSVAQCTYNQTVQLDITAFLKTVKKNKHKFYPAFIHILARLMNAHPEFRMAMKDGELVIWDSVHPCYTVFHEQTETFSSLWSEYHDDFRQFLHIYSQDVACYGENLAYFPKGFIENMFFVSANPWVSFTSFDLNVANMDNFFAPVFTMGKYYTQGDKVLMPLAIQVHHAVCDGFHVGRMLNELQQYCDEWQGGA
# Method: Fig 6 Kinetic analysis of the CAM acetyltransferase reaction using CAM or compounds 4 and 5 as substrates. […] The product of the enzymatic reaction, coenzyme A, reacted with 5,5’-dithio-bis(2-nitrobenzoic acid) to yield 5-thio-2-nitrobenzoate which absorbs at 412 nm, with a micromolar extinction coefficient equal to 0.0136. The Vmax and Km values were determined by fitting the substrate concentrations [S] and the obtained ΔA412nm/min (Vo) values into equation V 0 = V max[S]/(K m + [S]). The obtained Vmax values were divided by 0.0136 to convert their units in μM·min^-1 (http://www.sigmaaldrich.com/technical-documents/protocols/biology/enzymatic-assay-of-chloramphenicol-acetyltransferase.html). The ratio Vmax/Km for each curve is given in parenthesis. TEXT PRINTED IN THE PICTURE: no label printed: (0.178 min^-1) | no label printed: (0.139 min^-1) | no label printed: (0.008 min^-1) DOUBTS OF THE COPYIST ABOUT THIS PICTURE: The picture prints no substance label and no measure name for the three values. They stand beside the curves marked with triangles (0.178 min^-1), circles (0.139 min^-1) and squares (0.008 min^-1). […]
# [2] = system: S. aureus (WT); test: Antibacterial activity (growth inhibition, EC50); assay type: cell-based; conditions: Staphylococcus aureus
# Source text: (§1) A.S. Mankin (University of Illinois). E. coli ΔtolC strain BL21 DE3 with impaired AcrAB-TolC, a proton-dependent MDR efflux pump causing multidrug resistance, was offered by Dr D.N. Wilson (University of Munich) and included in our study to test if this mechanism of resistance affects the efficacy of CAM dimers. […] I. Spiliopoulou (National Reference Laboratory for Staphylococci, School of Medicine, University of Patras, Greece). Finally, E. coli strain Rosetta(DE3)pLysS, containing a chloramphenicol resistant gene in the pLysS plasmid, was purchased from Novagen and was also included in our study. Briefly, S. aureus or E. coli cells (200 μl of a 0.700 OD560 preculture) containing wild-type or mutant ribosomes were added in 3.8 ml of LB (Luria-Bertani) medium and grown at 37°C in the presence or absence of CAM or CAM dimers until the optical density of the control culture (grown in the absence of drug) reached the value 0.700 at 560 nm. For E. faecium and P. aeruginosa cultures, TSB (Tryptic Soy Broth) medium was used, instead of LB medium, in order to achieve exponential doubling times between 25 and 35 minutes. From dose-response curves, the half-maximal effective concentration (EC50) for each compound and strain was estimated. EC50 represents the molar concentration of a compound that produces 50% of the maximal possible effect. The EC50 values were mathematically determined by non linear regression fitting of the observed culture optical-density values, expressed as the percentage of 0.700 (y), into Hill Equation, y=min+max−min/1+(x/EC50)^−n where min and max are the lowest and highest observed values of the culture optical density, respectively, x the concentration of the tested compound, and n the Hill coefficient that represents the largest absolute value of the curve slope. EC50 is equal to the x- value of the sigmoid’s midpoint. Fitting was performed using the Four Parameter Logistic Curve of the SigmaPlot Program Version 11.0 (Systat Software, Inc) for Exact Graphs and Data Analysis.
# [3] = system: MRSA (GRE2691); test: Antibacterial activity (growth inhibition, EC50); assay type: cell-based; conditions: Staphylococcus aureus
# Source text: as §1
# [4] = system: MRSA (GRE2272); test: Antibacterial activity (growth inhibition, EC50); assay type: cell-based; conditions: Staphylococcus aureus
# Source text: as §1
# [5] = system: 70S ribosomes from E. coli (central loop of Domain V of 23S rRNA); test: Time-resolved footprinting of RI and R*I complexes; assay type: binding; conditions: ratio to control lane R
# Source text: The behavior of compound 5 was compared to that of compound 4, which is bearing a flexible linker of the same length. The footprinting analysis exploits the slow-binding character of the dimers and has been successfully applied in studying various slow-binding inhibitors of the PTase. To overcome potential drawbacks resulting from protections caused by natural PTase substrates, naked 70S ribosomes were used instead of complex C. To footprint the RI complex, compounds 4 or 5 used in excess, and ribosomes were incubated at 25°C for 2 s, and then treated with chemical probes for 3 min to modify accessible nucleosides in 23S rRNA. Because the first step of binding, R + I ⇄ RI, equilibrates rapidly while the formation of R*I occurs slowly, the main product formed during such a short time interval was complex RI (>93%). To footprint the R*I complex, each dimer and ribosomes were incubated for 10 min, a time interval that is over than ten half-lives required for the attainment of the steady state. Because the isomerization constant, k on/k off, is at least 2.2 (see Table 1), most of the ribosomes added in the reaction mixture (>70%) were in the form of R*I complex at the end of this time interval.
# Chemical modification of complexes RI and R*I with DMS, kethoxal, or CMCT, primer extension analysis, and gel electrophoresis of the primer extension products were performed as previously described. […] Quantitative scanning of the gels, and normalization of the band intensities were made as previously shown. Values indicated in Table 2 denote the ratio between the normalized intensity of a band of interest and the normalized intensity of the corresponding band in the control lane (ribosomes non-treated with CAM or CAM dimers).
# [6] = system: E. coli (ΔtolC); test: Antibacterial activity (growth inhibition, EC50); assay type: cell-based, Escherichia coli; conditions: Escherichia coli, BL21-DE3
# Source text: as §1
# [7] = system: E. coli (A2503C); test: Antibacterial activity (growth inhibition, EC50); assay type: cell-based, Escherichia coli; conditions: for EC50: Escherichia coli
# Source text: as §1
# [8] = system: E. coli Rosetta(DE3)pLysS; test: Antibacterial activity (growth inhibition, EC50); assay type: cell-based, Escherichia coli; conditions: for EC50: Escherichia coli
# Source text: as §1
# [9] = system: E. coli (A2058G); test: Antibacterial activity (growth inhibition, EC50); assay type: cell-based, Escherichia coli; conditions: for EC50: Escherichia coli
# Source text: as §1
# [10] = system: E. coli (WT); test: Antibacterial activity (growth inhibition, EC50); assay type: cell-based, Escherichia coli; conditions: for EC50: Escherichia coli, LB medium, 37°C, OD560; for EC50(cell growth)/IC50(puro): wild-type E. coli, IC50(puro) calculated from Ki* at 2 mM puromycin
# Source text: as §1
# [11] = LB medium, 37°C, OD560, read-out: EC50
# [12] = R*I complex (10 min incubation)
SMILES,behaviour as substrate of CAM acetyltransferase [1],"Relative reactivity of A2058 [5, 12]",Relative reactivity of A2059 ([5]; R*I complex),Relative reactivity of A2062 ([5]; R*I complex),Relative reactivity of A2451 ([5]; R*I complex),Relative reactivity of G2505 ([5]; R*I complex),Relative reactivity of U2506 ([5]; R*I complex),Relative reactivity of U2609 ([5]; R*I complex),Relative reactivity of A2058 ([5]; RI complex (2 s incubation)),Relative reactivity of A2059 ([5]; RI complex),Relative reactivity of A2062 ([5]; RI complex),Relative reactivity of A2451 ([5]; RI complex),Relative reactivity of G2505 ([5]; RI complex),Relative reactivity of U2506 ([5]; RI complex),Relative reactivity of U2609 ([5]; RI complex),EC50 [6] [µM],EC50 [7] [µM],EC50 [8] [µM],EC50 [9] [µM],EC50 [10] [µM],also measured
"O=C(N[C@H](CO)[C@H](O)c1ccc([N+](=O)[O-])cc1)c1ccc(C(=O)N[C@H](CO)[C@H](O)c2ccc([N+](=O)[O-])cc2)cc1 [Compound 5, N^1,N^4-Bis ((1R,2R)-1,3-dihydroxy-1-(4-nitrophenyl)propan-2-yl)-terephthalamide]",almost inactive,"0.32 ± 0.04 ^b ^, ^c","0.33 ± 0.08 ^b ^, ^c","0.40 ± 0.09 ^b ^, ^c",0.41 ± 0.05 ^c,0.35 ± 0.06 ^c,"0.33 ± 0.05 ^b ^, ^c","0.79 ± 0.08 ^b ^, ^c",0.93 ± 0.06,0.96 ± 0.08,0.80 ± 0.06 ^b,0.40 ± 0.03 ^b,0.38 ± 0.05 ^b,0.47 ± 0.05 ^b,1.00 ± 0.08,23.7 ± 1.5,16.4 ± 1.5,23.5 ± 1.3,18 ± 1.5,25.3 ± 1.9,"EC50 [2, 11]: 15.4 ± 1.9 µM; EC50 [3, 11]: 24 ± 3.1 µM; EC50 [4, 11]: 16.9 ± 4.4 µM; fold more active than CAM in inhibiting the A2503C mutant [7]: approximately 2 fold; activity compared to CAM in inhibiting the growth of Rosetta(DE3)pLysS E. coli cells [8]: five-fold higher activity; activity relative to CAM in inhibiting the growth of the A2058G mutant [9]: equivalent to CAM; EC50(cell growth)/IC50(puro) [10]: 14.06 ± 1.75"
"O=C(CCCCC(=O)N[C@H](CO)[C@H](O)c1ccc([N+](=O)[O-])cc1)N[C@H](CO)[C@H](O)c1ccc([N+](=O)[O-])cc1 [Compound 4, N^1,N^6-Bis((1R,2R)-1,3-dihydroxy-1-(4-nitrophenyl)propan-2-yl)adipamide]",behaves like CAM as substrate of CAM acetyltransferase,0.90 ± 0.09,"0.70 ± 0.07 ^b ^, ^c","0.67 ± 0.05 ^b ^, ^c",0.77 ± 0.05 ^b,0.44 ± 0.03 ^b,0.70 ± 0.04 ^b,1.00 ± 0.07,0.99 ± 0.07,0.94 ± 0.06,0.88 ± 0.08 ^b,0.67 ± 0.04 ^b,0.43 ± 0.03 ^b,0.70 ± 0.05 ^b,1.00 ± 0.10,98 ± 16.3,> 100,> 200,97 ± 3.3,83.6 ± 6.2,EC50 [2]: 28.3 ± 1.8 µM; EC50 [3]: 76.9 ± 8.6 µM; EC50 [4]: > 200 µM; EC50(cell growth)/IC50(puro) [10]: 7.45 ± 0.81
